# Assay results published in PubChem BioAssay (NCI).
#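 Following 48 hours of exposure in 96-well plates, responses at five concentrations were used to interpolate endpoints linearly. Definition used: TGI = concentration required for complete inhibition of growth.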
# What was measured:
# Test in all cases: NCI tumour cell line growth inhibition, 48 h
# [1] = system: A498 renal
# [2] = system: UO-31 renal
# [3] = system: SNB-75 CNS
# [4] = system: HCC-2998 colon
# [5] = system: NCI-H460 lung
# [6] = system: SK-MEL-2 melanoma
# [7] = system: SK-OV-3 ovarian
# [8] = system: K-562 leukemia
# [9] = system: HT29 colon
# [10] = system: MOLT-4 leukemia
# [11] = system: OVCAR-3 ovarian
# [12] = system: RXF 393 renal
# [13] = system: NCI-H226 lung
# [14] = system: MALME-3M melanoma
# [15] = system: LOX IMVI melanoma
# [16] = system: PC-3 prostate
# [17] = system: NCI/ADR-RES ovarian
# [18] = system: 786-0 renal
# [19] = system: HL-60(TB) leukemia
# [20] = system: DU-145 prostate
# [21] = system: MDA-MB-231 breast
# [22] = system: HOP-62 NSCLC
# [23] = system: EKVX NSCLC
# [24] = system: MDA-N
# [25] = system: SNB-19 CNS
# [26] = system: SF-295 CNS
# [27] = system: MCF7 breast
# [28] = system: SR leukemia
# [29] = system: CCRF-CEM leukemia
# [30] = system: MDA-MB-435
# [31] = system: HCT-15 colon
# [32] = system: UACC-62 melanoma
# [33] = system: BT-549 breast
# [34] = system: UACC-257 melanoma
# [35] = system: SK-MEL-5 melanoma
# [36] = system: IGROV1 ovarian
# [37] = system: ACHN renal
# [38] = system: KM12 colon
# [39] = system: SW-620 colon
# [40] = system: OVCAR-8 ovarian
# [41] = system: RPMI-8226 leukemia
# [42] = system: OVCAR-4 ovarian
# [43] = system: CAKI-1 renal
# [44] = system: A549 NSCLC
# [45] = system: SF-268 CNS
# [46] = system: COLO 205 colon
# [47] = system: OVCAR-5 ovarian
# [48] = system: NCI-H23 lung
# [49] = system: U251 CNS
# [50] = system: M14 melanoma
# [51] = system: HS 578T breast
# [52] = system: TK-10 renal
# [53] = system: HCT-116 colon
# [54] = system: SK-MEL-28 melanoma
# [55] = system: T-47D breast
# [56] = system: SN12C renal
# [57] = system: SF-539 CNS
# [58] = system: NCI-H522 lung
# [59] = system: HOP-92 NSCLC
compound,measurement,setting,value
C[C@]12CCC3c4ccc(O)cc4CC[C@H]3C1CC(=O)N(CCN1CCCC1)C2=O (some centres not stated),TGI,[1],> 10 µM
same,TGI,[2],> 10 µM
same,TGI,[3],> 10 µM
same,TGI,[4],> 10 µM
same,TGI,[5],> 10 µM
same,TGI,[6],> 10 µM
same,TGI,[7],> 10 µM
same,TGI,[8],> 10 µM
same,TGI,[9],> 10 µM
same,TGI,[10],> 10 µM
same,TGI,[11],> 10 µM
same,TGI,[12],> 10 µM
same,TGI,[13],> 10 µM
same,TGI,[14],> 10 µM
same,TGI,[15],> 10 µM
same,TGI,[16],> 10 µM
same,TGI,[17],> 10 µM
same,TGI,[18],> 10 µM
same,TGI,[19],> 10 µM
same,TGI,[20],> 10 µM
same,TGI,[21],> 10 µM
same,TGI,[22],> 10 µM
same,TGI,[23],> 10 µM
same,TGI,[24],> 10 µM
same,TGI,[25],> 10 µM
same,TGI,[26],> 10 µM
same,TGI,[27],> 10 µM
same,TGI,[28],> 10 µM
same,TGI,[29],> 10 µM
same,TGI,[30],> 10 µM
same,TGI,[31],> 10 µM
same,TGI,[32],> 10 µM
same,TGI,[33],> 10 µM
same,TGI,[34],> 10 µM
same,TGI,[35],> 10 µM
same,TGI,[36],> 10 µM
same,TGI,[37],> 10 µM
same,TGI,[38],> 10 µM
same,TGI,[39],> 10 µM
same,TGI,[40],> 10 µM
same,TGI,[41],> 10 µM
same,TGI,[42],> 10 µM
same,TGI,[43],> 10 µM
same,TGI,[44],> 10 µM
same,TGI,[45],> 10 µM
same,TGI,[46],> 10 µM
same,TGI,[47],> 10 µM
same,TGI,[48],> 10 µM
same,TGI,[49],> 10 µM
same,TGI,[50],> 10 µM
same,TGI,[51],> 10 µM
same,TGI,[52],> 10 µM
same,TGI,[53],> 10 µM
same,TGI,[54],> 10 µM
same,TGI,[55],> 10 µM
same,TGI,[56],> 10 µM
same,TGI,[57],> 10 µM
CN(CCNC(=O)c1[nH]nc2c1Cc1ccccc1-2)CCNC(=O)c1[nH]nc2c1Cc1ccccc1-2,TGI,[1],36.8 µM
same,TGI,[2],34.7 µM
same,TGI,[3],26.1 µM
same,TGI,[4],29.4 µM
same,TGI,[58],33.4 µM
same,TGI,[5],33.5 µM
same,TGI,[7],31.1 µM
same,TGI,[8],38.1 µM
same,TGI,[9],32.7 µM
same,TGI,[10],45.2 µM
same,TGI,[11],28.9 µM
same,TGI,[12],32.3 µM
same,TGI,[13],35.8 µM
same,TGI,[14],34.5 µM
same,TGI,[15],38.5 µM
same,TGI,[16],35.7 µM
same,TGI,[17],> 100 µM
same,TGI,[18],30.6 µM
same,TGI,[19],40.7 µM
same,TGI,[59],34.6 µM
same,TGI,[20],32 µM
same,TGI,[21],39.3 µM
same,TGI,[22],29.4 µM
same,TGI,[23],38.4 µM
same,TGI,[24],31.2 µM
same,TGI,[25],31.4 µM
same,TGI,[26],31 µM
same,TGI,[27],44.9 µM
same,TGI,[28],42.9 µM
same,TGI,[29],42.9 µM
same,TGI,[30],35.3 µM
same,TGI,[31],33.2 µM
same,TGI,[32],37.5 µM
same,TGI,[33],31 µM
same,TGI,[34],34.3 µM
same,TGI,[35],30.8 µM
same,TGI,[36],31.8 µM
same,TGI,[37],32.5 µM
same,TGI,[38],33.6 µM
same,TGI,[39],49.4 µM
same,TGI,[40],41.7 µM
same,TGI,[42],32.4 µM
same,TGI,[43],31.3 µM
same,TGI,[44],39.8 µM
same,TGI,[45],39.6 µM
same,TGI,[46],31.9 µM
same,TGI,[47],33.5 µM
same,TGI,[48],33.6 µM
same,TGI,[49],41.3 µM
same,TGI,[50],34.4 µM
same,TGI,[51],61.9 µM
same,TGI,[52],33.7 µM
same,TGI,[53],32.8 µM
same,TGI,[54],35.2 µM
same,TGI,[55],44.3 µM
same,TGI,[56],31.8 µM
OC(Cc1cccnc1)(c1ccccc1)c1ccccc1,TGI,[1],> 100 µM
same,TGI,[2],> 100 µM
same,TGI,[3],> 100 µM
same,TGI,[4],> 100 µM
same,TGI,[58],> 100 µM
same,TGI,[5],> 100 µM
same,TGI,[6],> 100 µM
same,TGI,[7],> 100 µM
same,TGI,[8],> 100 µM
same,TGI,[9],> 100 µM
same,TGI,[11],> 100 µM
same,TGI,[12],> 100 µM
same,TGI,[13],> 100 µM
same,TGI,[14],> 100 µM
same,TGI,[15],> 100 µM
same,TGI,[16],> 100 µM
same,TGI,[17],> 100 µM
same,TGI,[18],> 100 µM
same,TGI,[19],> 100 µM
same,TGI,[59],> 100 µM
same,TGI,[20],> 100 µM
same,TGI,[21],> 100 µM
same,TGI,[22],> 100 µM
same,TGI,[23],> 100 µM
same,TGI,[24],> 100 µM
same,TGI,[25],> 100 µM
same,TGI,[26],> 100 µM
same,TGI,[27],> 100 µM
same,TGI,[28],> 100 µM
same,TGI,[29],> 100 µM
same,TGI,[30],> 100 µM
same,TGI,[31],> 100 µM
same,TGI,[32],> 100 µM
same,TGI,[33],> 100 µM
same,TGI,[34],> 100 µM
same,TGI,[35],> 100 µM
same,TGI,[36],> 100 µM
same,TGI,[37],> 100 µM
same,TGI,[38],> 100 µM
same,TGI,[39],> 100 µM
same,TGI,[40],> 100 µM
same,TGI,[41],> 100 µM
same,TGI,[42],> 100 µM
same,TGI,[43],> 100 µM
same,TGI,[44],> 100 µM
same,TGI,[45],> 100 µM
same,TGI,[46],> 100 µM
same,TGI,[47],> 100 µM
same,TGI,[48],> 100 µM
same,TGI,[49],> 100 µM
same,TGI,[50],> 100 µM
same,TGI,[51],> 100 µM
same,TGI,[52],> 100 µM
same,TGI,[53],> 100 µM
same,TGI,[54],> 100 µM
same,TGI,[55],> 100 µM
same,TGI,[56],> 100 µM
CC(=O)OCC1CCC(=C2C(=O)OC(C)(C)OC2=O)N1 (configuration not stated),TGI,[2],> 100 µM
same,TGI,[3],> 100 µM
same,TGI,[4],> 100 µM
same,TGI,[58],> 100 µM
same,TGI,[5],> 100 µM
same,TGI,[6],> 100 µM
same,TGI,[7],> 100 µM
same,TGI,[8],> 100 µM
same,TGI,[9],> 100 µM
same,TGI,[10],> 100 µM
same,TGI,[11],> 100 µM
same,TGI,[12],> 100 µM
same,TGI,[13],> 100 µM
same,TGI,[14],> 100 µM
same,TGI,[15],> 100 µM
same,TGI,[16],> 100 µM
same,TGI,[17],> 100 µM
same,TGI,[18],> 100 µM
same,TGI,[19],> 100 µM
same,TGI,[59],> 100 µM
same,TGI,[20],> 100 µM
same,TGI,[21],> 100 µM
same,TGI,[22],> 100 µM
same,TGI,[23],> 100 µM
same,TGI,[24],> 100 µM
same,TGI,[25],> 100 µM
same,TGI,[26],> 100 µM
same,TGI,[27],> 100 µM
same,TGI,[28],> 100 µM
same,TGI,[29],> 100 µM
same,TGI,[30],> 100 µM
same,TGI,[31],> 100 µM
same,TGI,[32],> 100 µM
same,TGI,[33],> 100 µM
same,TGI,[34],> 100 µM
same,TGI,[35],> 100 µM
same,TGI,[36],> 100 µM
same,TGI,[38],> 100 µM
same,TGI,[39],> 100 µM
same,TGI,[40],> 100 µM
same,TGI,[41],> 100 µM
same,TGI,[42],> 100 µM
same,TGI,[43],> 100 µM
same,TGI,[44],> 100 µM
same,TGI,[45],> 100 µM
same,TGI,[46],> 100 µM
same,TGI,[48],> 100 µM
same,TGI,[49],> 100 µM
same,TGI,[50],> 100 µM
same,TGI,[51],> 100 µM
same,TGI,[52],> 100 µM
same,TGI,[53],> 100 µM
same,TGI,[54],> 100 µM
same,TGI,[55],> 100 µM
same,TGI,[56],> 100 µM
same,TGI,[57],> 100 µM
CCOC1CN(C)C(=Nc2cccc3ccccc23)S1 (configuration not stated),TGI,[1],> 10 µM
same,TGI,[2],> 10 µM
same,TGI,[3],> 10 µM
same,TGI,[4],> 10 µM
same,TGI,[58],> 10 µM
same,TGI,[5],> 10 µM
same,TGI,[7],> 10 µM
same,TGI,[8],> 10 µM
same,TGI,[9],> 10 µM
same,TGI,[10],> 10 µM
same,TGI,[11],> 10 µM
same,TGI,[13],> 10 µM
same,TGI,[14],> 10 µM
same,TGI,[15],> 10 µM
same,TGI,[16],> 10 µM
same,TGI,[17],> 10 µM
same,TGI,[18],> 10 µM
same,TGI,[59],> 10 µM
same,TGI,[20],> 10 µM
same,TGI,[21],> 10 µM
same,TGI,[22],> 10 µM
same,TGI,[23],> 10 µM
same,TGI,[24],> 10 µM
same,TGI,[25],> 10 µM
same,TGI,[26],> 10 µM
same,TGI,[27],> 10 µM
same,TGI,[28],> 10 µM
same,TGI,[29],> 10 µM
same,TGI,[30],> 10 µM
same,TGI,[31],> 10 µM
same,TGI,[32],> 10 µM
same,TGI,[33],> 10 µM
same,TGI,[34],> 10 µM
same,TGI,[35],> 10 µM
same,TGI,[36],> 10 µM
same,TGI,[37],> 10 µM
same,TGI,[38],> 10 µM
same,TGI,[39],> 10 µM
same,TGI,[40],> 10 µM
same,TGI,[41],> 10 µM
same,TGI,[42],> 10 µM
same,TGI,[43],> 10 µM
same,TGI,[44],> 10 µM
same,TGI,[45],> 10 µM
same,TGI,[46],> 10 µM
same,TGI,[47],> 10 µM
same,TGI,[48],> 10 µM
same,TGI,[49],> 10 µM
same,TGI,[50],> 10 µM
same,TGI,[51],> 10 µM
same,TGI,[52],> 10 µM
same,TGI,[53],> 10 µM
same,TGI,[54],> 10 µM
same,TGI,[55],> 10 µM
same,TGI,[56],> 10 µM
same,TGI,[57],> 10 µM
